In patent US20220079956A1, “MAINTENANCE OF AGING MUSCLE TISSUE” (BIOPHYTIS SA, priority 2011, published 2022):
Values joined by “and” are separate entries in the source; they are usually repeats but may differ in a detail not shown here. Equal entries are not always repeated. Where two headings read alike, the source gives them in different places.

Experiments:
[1] = system: UCP3 gene transcripts; assay: Quantity of UCP3 gene transcripts (mRNA) in muscle of high-fat diet mice; assay type: in vivo, male C57BL/6J mice; details: high-fat diet 3 weeks, 5 mg of 20E per kg body weight per day; vs high-fat diet alone
Text: (§1) The effect of phytoecdysones is observed on mice subjected to a high-fat diet during 3 weeks.
(§2) The HF high-fat diet involved the intake of large amounts of fat in the form of lard. The mice selected for the study were male C57BL/6J mice, 6 weeks old at the start of the experiment.
(§3) The mice in the study were grouped according to the dietary regimes and treatments to which they were subjected: normal or control diet (LF), high-fat diet (HF), high-fat diet supplemented with quinoa extract (HFQ) and high-fat diet supplemented with pure 20-hydroxyecdysone (HF20E).
(§4) The mice were subjected to the dietary regimes detailed in Table 1 below for three weeks and the mice fed a high-fat diet were treated in parallel with pure 20E or extract A (2% 20E). The concentration of 20E was adjusted to equal 40 mg per kg of food.
(§5) In light of the average food intake of the mice, the dose of 20E administered corresponded in the two treatments to 5 mg of 20E per kg of body weight per day. The food was supplied in excess every day for both dietary regimes and all three treatments. […]
(§6) FIG. 4 illustrates a graph plotting quantities of gene transcripts (mRNA), as measured in the muscle, against diet and associated treatment. The quantities have been normalized with respect to the quantities measured in the muscles of mice fed the control diet.

[2] = system: CPT-1 intracellular fatty acid transporter gene transcripts; assay: Quantity of CPT-1 gene transcripts (mRNA) in muscle of high-fat diet mice; assay type: in vivo, male C57BL/6J mice; details: high-fat diet 3 weeks, 5 mg of 20E per kg body weight per day
Text: as §1, §2, §3, §4, §5, §6

[3] = system: UCP2 gene transcripts; assay: Quantity of UCP2 gene transcripts (mRNA) in muscle of high-fat diet mice; assay type: in vivo, male C57BL/6J mice; details: high-fat diet 3 weeks, 5 mg of 20E per kg body weight per day; vs high-fat diet alone
Text: as §1, §2, §3, §4, §5, §6

[4] = system: mice subjected to a high-fat diet; assay: Mice subjected to a high-fat diet for 3 weeks: carcass weight, quadriceps composition, energy balance; assay type: in vivo, male C57BL/6J mice; details: high-fat diet 3 weeks
Method: as §1, §2
Mice not subjected to a high fat diet, forming a normal diet control group, were tested in parallel.
as §3, §4
In light of the average food intake of the mice, the dose of 20E administered corresponded in the two treatments to 5 mg of 20E per kg of body weight per day. The food was supplied in excess every day for both dietary regimes and all three treatments. On average, 40 g of food was provided per cage per day or 6.5 g of food per mouse per day.
Table 1 below sets out in greater detail the composition of the diets to which mice were subjected:
Following sacrifice, aliquots of muscle (quadriceps) were collected for analysis. FIG. 2 illustrates a graph plotting muscle triglyceride content against diet and associated treatment.

[5] = Single ascending dose study, clinical Phase 1: plasma levels; assay type: in vivo; details: human; for Cmax: plasma, SAD, read-out: Maximal plasma concentration (Cmax)
Method: A single ascending BIO101 dose study during clinical Phase 1 trial is performed. […] This low concentration is clearly below optimal conditions (with only 26 and 32% of efficacy for two selected markers of differentiation, see FIGS. 10A-B) and is not responsible for significant efficacy in terms of anabolism (FIGS. 11A-B).
FIG. 12A-B are graphs of plasma levels of BIO101 in human following 100, 350 and 700 mg administration.

[6] = system: C2C12 myoblast; assay: C2C12 myoblast differentiation (fusion index, number of nuclei per myotube); assay type: cell-based, mouse; details: for EC50: C2C12 myoblasts, 6-day differentiation in the presence of the drug, read-out: EC50 for number of nuclei per myotube increase
Method: FIGS. 10A-B are graphs of BIO101 efficacy 50% value (EC50) determination on myoblasts differentiation. The fusion index and number of nuclei per myotubes were measured after 6-day differentiation in the presence of the drug.
The fusion index and the number of nuclei per myotube are recognized parameters of myoblast differentiation. The fusion index was calculated as the ratio of nuclei in fused MHC-positive cells 2 nuclei per cells) to the total nuclei number. […] EC50 values (efficacious doses 50%) for each parameter were calculated by the integration of effect vs [BIO101] curves.

[7] = Multiple ascending dose study, clinical Phase 1: adverse events; assay type: in vivo; details: human, daily administrations of 900 mg, MAD
Method: A multiple ascending BIO101 dose study was performed during clinical Phase 1 trial. […] For this reason, in clinical Phase 2, the daily dose of 900 mg was not tested.

[8] = system: sarcopenic patients; assay: Clinical trial in sarcopenic patients: gait speed in 400 meters walking test; assay type: in vivo, human; details: 6 months; for improvement in gait speed in 400 meters walking test compared to placebo: 700 mg daily
Text: After 6 months of treatment, an improvement of 0.09 m/s in the full analyze set (FAS) population and 0.10 m/s in the per protocol (PP) population (treatment effect significant, p<0.01) were observed. This effect of Sarconeos (BIO101) corresponds to the minimal clinically important difference (MCID) in sarcopenia (0.1 m/s), associated with a reduction in mobility and disability in elderly (Perera et al. 2006).

[9] = system: C2C12 cells; assay: Protein synthesis in differentiated C2C12 myotubes by [3H]-leucine incorporation; assay type: cell-based, mouse; details: 0.1 μM, vs untreated control
Text: FIGS. 11A-B are graph of effects of 20-hydroxyecdysone (20E) on protein synthesis and myostatin gene expression in C2C12 cells. […] Results are shown as means±SEM, ***p<0.001, **p<0.01, *p<0.05 vs untreated control (Kruskal-Wallis followed by a Dunn's test).

[10] = system: myostatin gene expression; assay: Myostatin gene expression in C2C12 myotubes by qRT-PCR; assay type: cell-based, mouse; details: 6 hours, vs untreated control
Method: In FIG. 11B, C2C12 mouse myoblasts were differentiated for 6 days into myotubes. They were then treated for 6 hours with concentrations of 20E ranging from 0.001 to 10 μM. Myostatin gene expression was detected by qRT-PCR. Results are shown as means±SEM with ***p<0.001, **p<0.01, *p<0.05 vs untreated control (one-way ANOVA with Dunnett's test compared to untreated control).

CC(C)(O)CC[C@@H](O)[C@](C)(O)[C@H]1CC[C@@]2(O)C3=CC(=O)[C@@H]4C[C@@H](O)[C@@H](O)C[C@]4(C)[C@H]3CC[C@]12C [20E, 20-hydroxyecdysone]
quantity of UCP3 gene transcripts in muscle [1]: increase | quantity of CPT-1 gene transcripts in muscle [2]: tends to restore transcript levels to those seen for the control diet | quantity of UCP2 gene transcripts in muscle [3]: tendency to increased quantities | energy expenditure higher than high-fat diet alone ([4]; 5 mg of 20E per kg body weight per day): 9% | food intake (energy, kcal) ([4]; 5 mg of 20E per kg body weight per day, compared with animals fed the standard diet): same amount of energy | higher muscle protein content (quadriceps) ([4]; 5 mg of 20E per kg body weight per day, trend, compared to HF treatment alone): 5% | lower muscle triglyceride content (quadriceps) ([4]; 5 mg of 20E per kg body weight per day, trend, vs high-fat diet alone): 26% | lean body mass (carcass defatted) / carcass weight ([4]; 5 mg of 20E per kg of body weight per day in food, vs high-fat diet alone): increase that has allowed the mice to return virtually to the same level as the normal diet

CC(C)(O)CC[C@@H](O)[C@](C)(O)[C@H]1CC[C@@]2(O)C3=CC(=O)[C@@H]4C[C@@H](O)[C@@H](O)C[C@]4(C)[C@H]3CC[C@]12C [BIO101]
plasma exposure (maximal concentration from plot vs administered dose) ([5]; 175 mg administration (5 mg/kg for a 35 kg patient), read from FIG. 12B): 0.4 µM | Cmax ([5]; 100 mg dose): 260 nM and 126 ng/mL | Cmax ([5]; 350 mg dose): 630 nM and 304 ng/mL | Cmax ([5]; 700 mg dose): 780 nM and 374 ng/mL | EC50 [6]: 550 nM | EC50 ([6]; Mus musculus, C2C12, 144 h): 556 nM | % of efficacy on differentiation marker (first marker, fusion index) ([6]; at 0.26 μM, the plasma peak of a 100 mg dose, read from FIG. 10A): 26% | % of efficacy on differentiation marker (second marker, number of nuclei per myotube) ([6]; at 0.26 μM, the plasma peak of a 100 mg dose, read from FIG. 10B): 32% | treatment-related TEAEs (treatment-emergent adverse events) [7]: high number of subjects with treatment-related TEAEs | gait speed in 400 meters walking test compared to placebo ([8]; 350 mg daily, notably in a frail sub population of the FAS): improvement | improvement in gait speed in 400 meters walking test compared to placebo ([8]; full analyze set (FAS) population): 0.09 m/s | improvement in gait speed in 400 meters walking test compared to placebo ([8]; per protocol (PP) population, p<0.01): 0.10 m/s | effect on protein synthesis [9]: not yet significant | inhibition of myostatin gene expression ([10]; 0.1 μM): not yet significant | inhibition of myostatin gene expression ([10]; concentration equal or higher than 0.5 μM): significant
